Experimental data from PubChem BioAssay (NCI).
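Growth conditions: 96-well plates. Treatment: test compound, 48 hours, 5 concentrations. Analysis: linear interpolation between bracketing concentrations; unreached endpoints set to highest concentration. TGI is the concentration that stops growth completely.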

Legend:
Assay in all cases: NCI-60 cell line screen, 48 h
[1] = system: U251 CNS
[2] = system: KM12 colon
[3] = system: OVCAR-8 ovarian
[4] = system: DMS 273 small cell lung
[5] = system: OVCAR-4 ovarian
[6] = system: SF-539 CNS
[7] = system: EKVX NSCLC
[8] = system: SF-268 CNS
[9] = system: HCT-116 colon
[10] = system: RXF 393 renal
[11] = system: UACC-62 melanoma
[12] = system: KM20L2 colon
[13] = system: UO-31 renal
[14] = system: SK-MEL-2 melanoma
[15] = system: HL-60(TB) leukemia
[16] = system: DMS 114 small cell lung
[17] = system: OVCAR-5 ovarian

Structure (SMILES) | TGI [1] [µM] | TGI [2] [µM] | TGI [3] [µM] | TGI [4] [µM] | TGI [5] [µM] | TGI [6] [µM] | TGI [7] [µM] | TGI [8] [µM] | TGI [9] [µM] | TGI [10] [µM] | TGI [11] [µM] | TGI [12] [µM] | TGI [13] [µM] | TGI [14] [µM] | TGI [15] [µM] | TGI [16] [µM] | TGI [17] [µM]
CC12C3CC4C5CC(C(C53)[C@@H]1NCc1ccccc1)C42 (stereo partly drawn) | > 100 | > 100 | > 100 | > 100 | > 100 | > 100 | > 100 | > 100 | > 100 | > 100 | > 100 | > 100 | > 100 | > 100 | > 100 | > 100 | > 100
CC(C)c1cccc(C(C)C)c1NC(=O)C(=O)C1CCC2=C(Sc3ccccc3N2)C1=O (stereo not drawn) | > 100 | > 100 | > 100 | > 100 | > 100 | 76.7 | > 100 | > 100 | > 100 | > 100 | > 100 | > 100 | > 100 | > 100 | > 100 | > 100 | > 100
COC(=O)N/N=C(\C)CC(=O)Nc1cccc([N+](=O)[O-])c1 | > 100 | > 100 | > 100 | > 100 | – | > 100 | > 100 | > 100 | > 100 | > 100 | > 100 | > 100 | > 100 | > 100 | > 100 | > 100 | > 100
CCCCCCCC(=O)OC[C@H](C[As](=O)(O)O)OC(=O)CCCCCCC | 19.1 | – | 32 | 24 | 29.1 | 18.2 | 80.7 | 15.6 | 19.2 | 16 | 21.3 | 30.2 | 16.5 | – | 22 | 19.5 | –
Cn1ccc(=NS(=O)(=O)c2ccccc2)cc1 | > 100 | > 100 | > 100 | > 100 | – | > 100 | > 100 | > 100 | > 100 | > 100 | – | > 100 | > 100 | > 100 | > 100 | > 100 | > 100
CS(=O)(=O)NNS(=O)(=O)c1ccc(F)cc1 | > 100 | > 100 | > 100 | > 100 | > 100 | > 100 | > 100 | > 100 | > 100 | > 100 | > 100 | > 100 | > 100 | > 100 | > 100 | > 100 | –
CN/N=C(\C)C(CN1CCCCC1)C(C1=C(O)c2ccccc2OC1)c1ccccc1 (stereo not drawn) | > 100 | > 100 | > 100 | > 100 | > 100 | > 100 | > 100 | > 100 | > 100 | > 100 | > 100 | > 100 | > 100 | > 100 | > 100 | > 100 | > 100
O=c1c(C(c2ccc([N+](=O)[O-])cc2)c2c(O)c3ccccc3n(-c3ccccc3)c2=O)c(O)c2ccccc2n1-c1ccccc1 | 75.2 | 82.5 | 73.9 | > 100 | > 100 | 28 | 59.7 | 98.6 | 76.5 | 40.1 | 14.8 | > 100 | 21.3 | 31 | – | 73.5 | > 100
Nc1ccn(CCOC(c2ccccc2)P(=O)(O)O)c(=O)n1 (stereo not drawn) | > 100 | > 100 | > 100 | > 100 | – | > 100 | > 100 | > 100 | > 100 | > 100 | > 100 | > 100 | > 100 | > 100 | > 100 | > 100 | > 100
CSc1ccc2c(cc1=O)C(NC(=O)c1ccccc1)CCc1cc(O)c(O)c(O)c1-2 (stereo not drawn) | 26.2 | 27.5 | > 100 | > 100 | 33.2 | 10.6 | > 100 | > 100 | 36.4 | > 100 | 25.7 | 3.62 | > 100 | > 100 | 38.2 | 79.7 | > 100
C=CCCCN1CCCCC1=S | > 100 | > 100 | > 100 | > 100 | > 100 | > 100 | > 100 | – | > 100 | > 100 | > 100 | > 100 | > 100 | > 100 | > 100 | > 100 | > 100
CN1N=C2c3ccccc3OC(c3ccccc3)[C@H]2C1c1ccccc1 (stereo partly drawn) | > 100 | > 100 | > 100 | > 100 | > 100 | > 100 | > 100 | > 100 | > 100 | 88.5 | > 100 | > 100 | > 100 | > 100 | > 100 | > 100 | > 100
CC1SC2=NC3=C(c4ccccc4C3=O)C(c3ccccc3Cl)N2C1=O (stereo not drawn) | > 100 | > 100 | > 100 | > 100 | > 100 | > 100 | > 100 | > 100 | > 100 | – | > 100 | > 100 | > 100 | > 100 | > 100 | > 100 | > 100
COc1cccc(C=O)c1[O-].COc1cccc(C=O)c1[O-].[Zn+2] | > 100 | > 100 | > 100 | > 100 | > 100 | > 100 | > 100 | > 100 | > 100 | > 100 | > 100 | > 100 | 90.7 | > 100 | – | > 100 | > 100
CSc1nc(NC2OCC(OC(C)=O)C(OC(C)=O)C2OC(C)=O)c2c(n1)OCC2=O (stereo not drawn) | > 100 | > 100 | > 100 | > 100 | – | > 100 | > 100 | > 100 | > 100 | > 100 | > 100 | > 100 | > 100 | > 100 | > 100 | > 100 | > 100
O=C1NC(=S)NC(=O)C1=CC1CC1 | > 100 | > 100 | > 100 | > 100 | > 100 | > 100 | > 100 | > 100 | > 100 | > 100 | > 100 | > 100 | > 100 | > 100 | > 100 | > 100 | > 100
C#CC(C)(C)OCCCCOc1cc(O)c2c(=O)c3ccccc3n(C)c2c1 | > 100 | > 100 | > 100 | > 100 | > 100 | > 100 | > 100 | > 100 | > 100 | > 100 | > 100 | > 100 | > 100 | > 100 | > 100 | > 100 | > 100
CC(C)(CCl)NC(=O)c1cccc(C(=O)NC(C)(C)CCl)n1 | > 100 | > 100 | – | > 100 | > 100 | > 100 | > 100 | > 100 | > 100 | > 100 | – | > 100 | > 100 | > 100 | > 100 | > 100 | > 100
CCc1cccc(C(C)CC)c1NC(=O)C(=O)Cc1nc2ccccc2o1 (stereo not drawn) | > 50 | > 50 | > 50 | > 50 | > 50 | > 50 | > 50 | > 50 | > 50 | > 50 | > 50 | > 50 | > 50 | > 50 | > 50 | > 50 | > 50
CNS(=O)(=O)NNS(=O)(=O)c1ccc(F)cc1 | > 100 | > 100 | > 100 | > 100 | > 100 | > 100 | > 100 | > 100 | > 100 | > 100 | > 100 | > 100 | > 100 | > 100 | > 100 | > 100 | –
Cc1cccc(N=Cc2ccc(N(CCC#N)S(=O)(=O)c3ccccc3)cc2C)c1 | > 100 | > 100 | > 100 | > 100 | > 100 | > 100 | > 100 | > 100 | > 100 | – | > 100 | > 100 | > 100 | > 100 | > 100 | > 100 | > 100
CC(C)(C)OC(=O)N1CC(C)(C)N2C(=O)C3(CCCO3)C12 (stereo not drawn) | > 100 | > 100 | > 100 | > 100 | > 100 | > 100 | > 100 | > 100 | > 100 | > 100 | > 100 | > 100 | > 100 | > 100 | > 100 | > 100 | > 100
Oc1ccc(C2Oc3cc(O)cc4c3C2c2cc(O)cc3c2C(c2cc(O)cc5c2C4C(c2ccc(O)cc2)O5)C(c2ccc(O)cc2)O3)cc1 (stereo not drawn) | > 25 | > 25 | 22.8 | > 25 | 10.4 | 22.8 | > 25 | > 25 | > 25 | – | > 25 | > 25 | > 25 | 12.3 | 14.1 | > 25 | > 25
